target: T1, P2X7 receptor (Homo sapiens, UniProt Q99572); assay: High throughput P2X7 calcium mobilization assay (Example 4A); format: cell-based; settings: SH-SY5Y cells; 50% decrease in fluorescence response of cells exposed to 80 μM BzATP; Table I
T1 construct: host or cells: SH-SY5Y
T1 sequence (Q99572 1-595): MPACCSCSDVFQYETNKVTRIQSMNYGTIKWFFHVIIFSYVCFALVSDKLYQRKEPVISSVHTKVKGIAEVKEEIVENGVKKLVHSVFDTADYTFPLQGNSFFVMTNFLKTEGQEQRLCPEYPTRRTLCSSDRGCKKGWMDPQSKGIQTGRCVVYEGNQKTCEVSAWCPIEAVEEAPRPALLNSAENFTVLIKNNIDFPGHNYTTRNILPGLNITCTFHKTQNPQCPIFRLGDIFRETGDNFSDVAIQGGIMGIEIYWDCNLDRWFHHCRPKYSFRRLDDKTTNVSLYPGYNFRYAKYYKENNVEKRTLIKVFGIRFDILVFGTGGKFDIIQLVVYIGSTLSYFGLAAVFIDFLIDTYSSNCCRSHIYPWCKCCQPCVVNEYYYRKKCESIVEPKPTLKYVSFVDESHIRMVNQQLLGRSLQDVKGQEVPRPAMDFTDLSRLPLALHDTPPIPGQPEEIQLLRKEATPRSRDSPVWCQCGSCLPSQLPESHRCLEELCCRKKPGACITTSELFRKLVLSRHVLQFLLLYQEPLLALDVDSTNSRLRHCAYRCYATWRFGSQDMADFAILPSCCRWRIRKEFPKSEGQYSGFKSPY
Procedure: A. High Throughput Assay of P2X7 Receptors
SH-SY5Y cells, ATCC Number CRL-2266, (American Type Culture Collection, Manassas, Va.) are cultured under DMEM/High medium supplemented with 10% FBS, and 10 mM HEPES (Invitrogen Corp., Carlsbad, Calif.) in 5% CO2 and at 37° C. One day prior to the experiment, cells are plated at a density of 100,000 cells/well in a 96 well black/clear TC plate (Corning® Costar®, Sigma-Aldrich Co., St. Louis, Mo.). At the beginning of the experiment, the culture medium is removed and cells are incubated with 50 μL of 2.3 μM Fluo-4 AM dye (Invitrogen Corp.) in the assay solution (5 mM KCl, 9.6 mM NaH2PO4.H2O, 25 mM HEPES, 280 mM sucrose, 5 mM glucose, and 0.5 mM CaCl2; pH is adjusted to 7.4 with NaOH) for an hour at 37° C. After one hour dye incubation, wells are rinsed once with 50 μL assay solution, and are then incubated for an hour at room temperature with 100 μL assay solution containing the test compound. The final concentration of test compound generally ranges from 1 to 2500 nM; for positive control cells, no test compound is added. After the one hour incubation, plates are transferred to a FLIPR^TETRA instrument (Molecular Devices, Sunnyvale, Calif.) for calcium mobilization analysis.
For determination of antagonist activity, 50 μL, of P2X7 agonist (2′(3)-O-(4-benzoyl-benzoyl)adenosine 5′-triphosephate (BzATP; Sigma-Aldrich) in the assay solution is transferred using the FLIPR into the plate, such that the final agonist concentration is 80 μM (about EC50). In negative control cells, 50 μL of assay solution without agonist is added at this stage. The peak fluorescence signal over a 2 minute period is then measured.
First, the average maximum relative fluorescent unit (RFU) response from the negative control wells (no agonist) is subtracted from the maximum response detected for each of the other experimental wells. Second, average maximum RFU response is calculated for the positive control wells (agonist wells).

Row | Compound | IC50
1 | COc1nccnc1-n1cc(C(=O)NCC23CC4CC(CC(C4)C2)C3)c(C)n1 [Compound 42, N-(adamantan-1-ylmethyl)-1-(3-methoxypyrazin-2-yl)-3-methyl-1H-pyrazole-4-carboxamide] | ≤ 2000 nM
2 | Cc1nn(-c2cncc(N)n2)cc1C(=O)NCC12CC3CC(CC(C3)C1)C2 [Compound 43, N-(adamantan-1-ylmethyl)-1-(6-aminopyrazin-2-yl)-3-methyl-1H-pyrazole-4-carboxamide] | ≤ 2000 nM
3 | Cc1cnc(-n2cc(C(=O)NCC34CC5CC(CC(C5)C3)C4)c(C)n2)nc1N [Compound 45, N-(adamantan-1-ylmethyl)-1-(4-amino-5-methylpyrimidin-2-yl)-3-methyl-1H-pyrazole-4-carboxamide] | ≤ 2000 nM
4 | COC(=O)c1cc(C(=O)NCC23CC4CC(CC(C4)C2)C3)n(C(C)C)n1 [Compound 47, methyl 5-[(adamantan-1-ylmethyl)carbamoyl]-1-isopropyl-1H-pyrazole-3-carboxylate] | ≤ 2000 nM
5 | CCn1nc(C)c(Br)c1C(=O)NCC(CC(C)C)c1ccccc1 (centres unmarked) [Compound 49, 4-bromo-1-ethyl-3-methyl-N-(4-methyl-2-phenylpentyl)-1H-pyrazole-5-carboxamide] | ≤ 2000 nM
6 | CCn1nc(C)c(Br)c1C(=O)NCC(c1ccccc1)c1ccccc1 [Compound 50, 4-bromo-N-(2,2-diphenylethyl)-1-ethyl-3-methyl-1H-pyrazole-5-carboxamide] | ≤ 2000 nM
7 | CC(C)n1nc(CN2CCCC(N)C2)cc1C(=O)NCC12CC3CC(CC(C3)C1)C2 (centres unmarked) [Compound 55, N-(adamantan-1-ylmethyl)-3-[(3-aminopiperidin-1-yl)methyl]-1-isopropyl-1H-pyrazole-5-carboxamide] | ≤ 2000 nM
8 | Cc1cnc(-n2cc(C(=O)NCC34CC5CC(CC(C5)C3)C4)c(C)n2)nc1NCCO [Compound 56, N-(adamantan-1-ylmethyl)-1-{4-[(2-hydroxyethyl)amino]-5-methylpyrimidin-2-yl}-3-methyl-1H-pyrazole-4-carboxamide] | ≤ 2000 nM
9 | Cc1nn(-c2nccnc2N)cc1C(=O)NCC12CC3CC(CC(C3)C1)C2 [Compound 58, N-(adamantan-1-ylmethyl)-1-(3-aminopyrazin-2-yl)-3-methyl-1H-pyrazole-4-carboxamide] | ≤ 2000 nM
10 | Cc1nn(-c2cnc(N)cn2)cc1C(=O)NCC12CC3CC(CC(C3)C1)C2 [Compound 61, N-(adamantan-1-ylmethyl)-1-(5-aminopyrazin-2-yl)-3-methyl-1H-pyrazole-4-carboxamide] | ≤ 2000 nM
11 | Cc1cc(-n2cc(C(=O)NCC34CC5CC(CC(C5)C3)C4)c(C)n2)nc(N)n1 [Compound 64, N-(adamantan-1-ylmethyl)-1-(2-amino-6-methylpyrimidin-4-yl)-3-methyl-1H-pyrazole-4-carboxamide] | ≤ 2000 nM
12 | Cc1nc(OC2CCNCC2)sc1C(=O)NCC12CC3CC(CC(C3)C1)C2 [Compound 70, N-(adamantan-1-ylmethyl)-4-methyl-2-(piperidin-4-yloxy)-1,3-thiazole-5-carboxamide] | ≤ 2000 nM
13 | Cc1nc(N2CCNCC2)sc1C(=O)NCC12CC3CC(CC(C3)C1)C2 [Compound 72, N-(adamantan-1-ylmethyl)-4-methyl-2-piperazin-1-yl-1,3-thiazole-5-carboxamide] | ≤ 2000 nM

Now from value to molecule:

Row | IC50 | Compound
14 | ≤ 2000 nM | Cc1cc(C(=O)NCC23CC4CC(CC(C4)C2)C3)n(C)n1 [Compound 46, N-(adamantan-1-ylmethyl)-1,3-dimethyl-1H-pyrazole-5-carboxamide]
15 | ≤ 2000 nM | Cc1nn(-c2cccc(N)n2)cc1C(=O)NCC12CC3CC(CC(C3)C1)C2 [Compound 59, N-(adamantan-1-ylmethyl)-1-(6-aminopyridin-2-yl)-3-methyl-1H-pyrazole-4-carboxamide]
16 | ≤ 2000 nM | Cc1nn(C)c(C(=O)NCC23CC4CC(CC(C4)C2)C3)c1Br [Compound 62, N-(adamantan-1-ylmethyl)-4-bromo-1,3-dimethyl-1H-pyrazole-5-carboxamide]
17 | ≤ 2000 nM | CCn1nc(C)c(Br)c1C(=O)NCC12CC3CC(CC(C3)C1)C2 [Compound 63, N-(adamantan-1-ylmethyl)-4-bromo-1-ethyl-3-methyl-1H-pyrazole-5-carboxamide]
18 | ≤ 2000 nM | O=C(NCC12CC3CC(CC(C3)C1)C2)c1sc(-c2ccccc2C(F)(F)F)nc1Cl [Compound 65, N-(adamantan-1-ylmethyl)-4-chloro-2-[2-(trifluoromethyl)phenyl]-1,3-thiazole-5-carboxamide]
19 | ≤ 2000 nM | O=C(NCC12CC3CC(CC(C3)C1)C2)c1cnc(-c2ccccc2C(F)(F)F)s1 [Compound 67, N-(adamantan-1-ylmethyl)-2-[2-(trifluoromethyl)phenyl]-1,3-thiazole-5-carboxamide]
20 | ≤ 2000 nM | Cc1nc(Sc2nccn2C)c(C(=O)NCC23CC4CC(CC(C4)C2)C3)s1 [Compound 69, N-(adamantan-1-ylmethyl)-2-methyl-4-[(1-methyl-1H-imidazol-2-yl)thio]-1,3-thiazole-5-carboxamide]
21 | ≤ 2000 nM | Cc1ccsc1C(=O)NCC12CC3CC(CC(C3)C1)C2 [Compound 73, N-(1-adamantylmethyl)-3-methylthiophene-2-carboxamide]
22 | ≤ 2000 nM | CSc1ccc(C(=O)NCC23CC4CC(CC(C4)C2)C3)s1 [Compound 75, N-(1-adamantylmethyl)-5-(methylthio)thiophene-2-carboxamide]
23 | ≤ 2000 nM | O=C(NCC12CC3CC(CC(C3)C1)C2)c1ccc(Br)s1 [Compound 76, N-(1-adamantylmethyl)-5-bromothiophene-2-carboxamide]

same assay, conditions: SH-SY5Y cells; 50% decrease in fluorescence response of cells exposed to 80 μM BzATP; flag after the MS data in Examples 1-2

Row | Compound | IC50
24 | Cc1nc(-c2cccnc2)sc1C(=O)NCC1(c2ccc(C(F)(F)F)cc2)CCCCC1 [Compound 32, N-({1-[4-(trifluoromethyl)phenyl]cyclohexyl}methyl)-4-methyl-2-pyridin-3-yl-1-,3-thiazole-5-carboxamide] | ≤ 2000 nM
25 | Cc1ccc(C(CNC(=O)c2sc(-c3cccnc3)nc2C)CC(C)C)cc1 (centres unmarked) [Compound 33, N-[4-methyl-2-(4-methylphenyl)pentyl}-4-methyl-2-pyridin-3-yl-1,3-thiazole-5-carboxamide] | ≤ 2000 nM
26 | Cc1nc(-c2cccnc2)sc1C(=O)NCC1(c2ccc(F)cc2)CCCCC1 [Compound 34] | ≤ 2000 nM
27 | CCCC(CNC(=O)c1sc(-c2cccnc2)nc1C)c1ccc(Cl)cc1 (centres unmarked) [Compound 35, N-[2-(4-chlorophenyl)pentyl}-4-methyl-2-pyridin-3-yl-1,3-thiazole-5-carboxamide] | ≤ 2000 nM
28 | COc1ccc(C2(CNC(=O)c3sc(-c4cccnc4)nc3C)CCCCC2)cc1 [Compound 36, N-{[1-(4-methoxyphenyl)cyclohexyl]methyl}-4-methyl-2-pyridin-3-yl-1,3-thiazole-5-carboxamide] | ≤ 2000 nM
29 | Cc1nc(-c2cccnc2)sc1C(=O)NCC1(c2ccc(Cl)cc2)CCOCC1 [Compound 37, N-{[4-(4-Chlorophenyl)tetrahydro-2H-pyran-4-yl]methyl}-4-methyl-2-pyridin-3-yl-1,3-thiazole-5-carboxamide] | ≤ 2000 nM
30 | Cc1ccc(C2(CNC(=O)c3sc(-c4cccnc4)nc3C)CCCCC2)cc1 [Compound 38, N-{[1-(4-methylphenyl)cyclohexyl]methyl}-4-methyl-2-pyridin-3-yl-1,3-thiazole-5-carboxamide] | ≤ 2000 nM
31 | Cc1nc(-c2cccnc2)sc1C(=O)NCC1(c2ccc(Cl)c(F)c2)CCCCC1 [Compound 39, N-{[1-(4-chloro-3-fluorophenyl)cyclohexyl]methyl}-4-methyl-2-pyridin-3-yl-1-,3-thiazole-5-carboxamide] | ≤ 2000 nM
32 | Cc1ccc(C2(CNC(=O)c3sc(-c4cccnc4)nc3C)CCCCC2)cn1 [Compound 40, N-{[1-(6-methylpyridin-3-yl)cyclohexyl]methyl}-4-methyl-2-pyridin-3-yl-1-,3-thiazole-5-carboxamide] | ≤ 2000 nM

— patent US9133204B2, “5-membered heterocyclic amides and related compounds” (H. Lundbeck A/S, priority 2007, dated 2015)
